Measurements from ChEMBL document CHEMBL1122053, “A new, potent, conformationally restricted analogue of amphetamine: 2-amino-1,2-dihydronaphthalene” (1982).
The source made the active and inactive calls. No cut-off for these calls is given here.

Columns and labels:
[1] = organism: Mus musculus; experiment: Evaluated for the percentage blockade of activity in mice; format: functional
[2] = organism: Mus musculus; experiment: Evaluated for the spontaneous motor activity in mice and the mean total activity (MTA) was reported; Expressed as counts/90 min/3 mice; format: functional
[3] = test system: Rattus norvegicus; experiment: Number of rats falling (4) within each stereotypy classification after intraperitoneal administration (110 uM/Kg); continuous sniffing, with repetitive sequences of head and limb movements, as well as some licking and rearing (total rats 4); format: functional, organism-based
[4] = test system: Mus musculus; experiment: Ability to stimulate mice at dose of 8 mg/kg; Slight increase in spontaneous motor activity; format: functional, organism-based; design: dose 8 mg/kg
[5] = test system: Rattus norvegicus; experiment: Number of rats falling (3) within each stereotypy classification after intraperitoneal administration (110 uM/Kg); continuous sniffing, some head bobbing and weaving (total rats 4); format: functional, organism-based
[6] = test system: Rattus norvegicus; experiment: Number of rats falling (1) within each stereotypy classification after intraperitoneal administration (110 uM/Kg); continuous sniffing, some arousal; format: functional, organism-based

SMILES: COC(=O)C(C)(N)Cc1ccc(O)cc1.NC1C=Cc2ccccc2C1 (stereo not given)
- Block of activity [1]: 59.3%
- MTA [2]: 3491

SMILES: CC(N)Cc1ccccc1.COC(=O)C(C)(N)Cc1ccc(O)cc1 (stereo not given)
- Block of activity [1]: 64.2%
- MTA [2]: 5144

SMILES: NC1C=Cc2ccccc2C1 (racemic)
- Activity [3]: continuous sniffing, with repetitive sequences of head and limb movements, as well as some licking and rearing (total rats 4)

SMILES: NC1CCc2ccccc2C1 (stereo not given)
- Activity [4]: Active

SMILES: C[C@H](N)Cc1ccccc1 [DEXTROAMPHETAMINE]
- MTA [2]: 14356

SMILES: Cl.NC1C=Cc2ccccc2C1 (single isomer, unassigned; (-))
- MTA [2]: 8566

SMILES: COC(=O)[C@H]1[C@H]2C[C@@H]3c4[nH]c5cc(OC)ccc5c4CCN3C[C@H]2C[C@@H](OC(=O)c2cc(OC)c(OC)c(OC)c2)[C@@H]1OC.Cl.NC1C=Cc2ccccc2C1 (racemic)
- Activity [5]: continuous sniffing, some arousal
- Activity [6]: continuous sniffing, some arousal
